Measured values as given in article PMC5078989, “Targeted inhibition of the COP9 signalosome for treatment of cancer” (Nature Communications, 2016).

Test system: panel of cancer cell lines
Experiment: Cell viability (CellTiter-Glo) dose-response across cancer cell line panel;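 further: after 72 h compound incubation with CellTiter-Glo ATP readout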
Format: cell-based, human
Conditions: Homo sapiens
Excerpt: Next, we explored the effect of CSN5 inhibition on the viability of cancer cells. To obtain a comprehensive picture, we generated dose–response curves with a CSN5 inhibitor across more than 500 cancer cell lines in a previously described standardized setting[47] (Supplementary Data 1).
A standardized CellTiter-Glo Assay (Promega #G7570) based on the quantification of ATP was applied according to the manufacturer's protocol to measure the amount of viable cells in culture. In brief, cells were seeded into 384-well plates at optimal density for each cell line. After 4 h, compounds were added at different concentrations in growth medium and incubated for another 72 h in a humidifying chamber at 37 °C and 5% CO2. […] EC50 values were calculated from the plot of percentage of inhibition versus inhibitor concentration using the nonlinear regression analysis software Origin 7.5SR6 (OriginLab Corp.).

Question: Which results are given for CC(C)C[C@H](NC(=O)[C@H](Cc1ccccc1)NC(=O)c1cnccn1)B(O)O [Bortezomib]?
Answer: EC50 (NALM-6, NALM-6): 0.00808 µM; EC50 (NB1, NB-1): 0.00756 µM; EC50 (NB-4, NB-4): 0.00438 µM; EC50 (NCI-H28, NCI-H28): 0.0101 µM; EC50 (NCI-H82, cell line NCI-H82): 0.00125 µM; EC50 (NCI-H146, cell line NCI-H146): 0.0109 µM; EC50 (NCI-H196, NCI-H196): 0.027 µM; EC50 (NCI-H226, cell line NCI-H226): 0.0149 µM; EC50 (NCI-H358, NCI-H358): 0.0103 µM; EC50 (NCI-H441, NCI-H441): 0.0155 µM; EC50 (NCI-H460, cell line NCI-H460): 0.0852 µM; EC50 (NCI-H520, cell line NCI-H520): 0.00791 µM; EC50 (NCI-H524, NCI-H524): 0.00772 µM; EC50 (NCI-H596, NCI-H596): 0.021 µM; EC50 (NCI-H647, cell line NCI-H647): 0.0137 µM; EC50 (NCI-H650, NCI-H650): 0.118 µM; EC50 (NCI-H661, cell line NCI-H661): 0.0173 µM; EC50 (NCI-H716, NCI-H716): 0.00509 µM; EC50 (NCI-H727, NCI-H727): 0.0274 µM; EC50 (NCI-H810, cell line NCI-H810): 0.0118 µM; EC50 (NCI-H838, NCI-H838): 0.0285 µM; EC50 (NCI-H841, NCI-H841): 0.018 µM; EC50 (NCI-H1048, NCI-H1048): 0.0186 µM; EC50 (NCI-H1092, NCI-H1092): 0.019 µM; EC50 (NCI-H1184): 0.00724 µM; EC50 (NCI-H1299, cell line NCI-H1299): 0.0185 µM; EC50 (NCI-H1341): 0.011 µM; EC50 (NCI-H1355, cell line NCI-H1355): 0.0278 µM; EC50 (NCI-H1437, cell line NCI-H1437): 0.0195 µM; EC50 (NCI-H1563, cell line NCI-H1563): 0.0578 µM; EC50 (NCI-H1568, cell line NCI-H1568): 0.0122 µM; EC50 (NCI-H1573, NCI-H1573): 0.0382 µM; EC50 (NCI-H1581, cell line NCI-H1581): 0.0129 µM; EC50 (NCI-H1623, NCI-H1623): 0.014 µM; EC50 (NCI-H1650, cell line NCI-H1650): 0.00329 µM; EC50 (NCI-H1651, NCI-H1651): 0.00883 µM; EC50 (NCI-H1666, cell line NCI-H1666): 0.00768 µM; EC50 (NCI-H1693, NCI-H1693): 0.00561 µM; EC50 (NCI-H1703, cell line NCI-H1703): 0.00911 µM; EC50 (NCI-H1734, NCI-H1734): 0.00907 µM; EC50 (NCI-H1781, cell line NCI-H1781): 0.0129 µM; EC50 (NCI-H1792, cell line NCI-H1792): 0.0518 µM; EC50 (NCI-H1793, cell line NCI-H1793): 0.0553 µM; EC50 (NCI-H1869): 0.00335 µM; EC50 (NCI-H1944, NCI-H1944): 0.0552 µM; EC50 (NCI-H1975, cell line NCI-H1975): 0.00964 µM; EC50 (NCI-H2023, NCI-H2023): 0.0241 µM; EC50 (NCI-H2073, NCI-H2073): 0.0265 µM; EC50 (NCI-H2087, cell line NCI-H2087): 0.00721 µM; EC50 (NCI-H2122, cell line NCI-H2122): 0.0225 µM; EC50 (NCI-H2126, cell line NCI-H2126): 0.0244 µM; EC50 (NCI-H2170, cell line NCI-H2170): 0.0156 µM; EC50 (NCI-H2172, NCI-H2172): 0.0515 µM; EC50 (NCI-H2405, NCI-H2405): 0.0168 µM; EC50 (NCI-H2452, NCI-H2452): 0.0217 µM; EC50 (NCI-H3255, NCI-H3255): 0.00864 µM; EC50 (NOMO-1, NOMO-1): 0.0119 µM; EC50 (NUGC-3, cell line NUGC-3): 0.0119 µM; EC50 (NUGC-4, cell line NUGC-4): 0.0162 µM; EC50 (OAW-42, OAW42): 0.0144 µM; EC50 (OC 316): 0.00898 µM; EC50 (OC-314, OC 314): 0.0086 µM; EC50 (OCI-AML2, OCI-AML2): 0.00861 µM; EC50 (OCI-AML-3, OCI-AML3): 0.00545 µM; EC50 (OCI-AML-5, OCI-AML5): 0.00917 µM; EC50 (OCI-LY19, OCI-LY-19): 0.0112 µM; EC50 (OCI-Ly3, OCI-LY3): 0.00553 µM; EC50 (OCI-Ly10, OCI-LY10): 0.00553 µM; EC50 (OCI-M1, OCI-M1): 0.00241 µM; EC50 (OE19, cell line OE19): 0.0134 µM; EC50 (OE33, cell line OE33): 0.0201 µM; EC50 (ONCO-DG-1, ONCO-DG-1): 0.0116 µM; EC50 (OS-RC-2, OS-RC-2): 0.0187 µM; EC50 (OUMS-23, OUMS-23): 0.0141 µM; EC50 (OV7, OV7): 0.00826 µM; EC50 (OV56, cell line OV56): 0.0136 µM; EC50 (OV-90, OV-90): 0.015 µM; EC50 (OVCAR-4, cell line OVCAR-4): 0.012 µM; EC50 (OVCAR-8, cell line OVCAR-8): 0.0193 µM; EC50 (OVISE): 0.00983 µM; EC50 (OVSAHO): 0.00915 µM; EC50 (P3HR-1, P3HR-1): 0.00829 µM; EC50 (P12-Ichikawa): 0.00182 µM; EC50 (P31-FUJ, P31/FUJ): 0.00593 µM; EC50 (PANC-1, cell line PANC-1): 0.00876 µM; EC50 (PANC-03-27, cell line Panc 03.27): 0.0106 µM; EC50 (PC-14, cell line PC-14): 0.0152 µM; EC50 (PE/CA-PJ41 (clone D2)): 0.00974 µM; EC50 (PEER): 0.0117 µM; EC50 (PF-382, PF-382): 0.00273 µM; EC50 (PL-21, PL-21): 0.0117 µM; EC50 (PLC-PRF-5, PLC/PRF/5): 0.00753 µM; EC50 (PSN1, cell line PSN1): 0.0104 µM; EC50 (PaTu 8988s, PA-TU-8988S): 0.0137 µM; EC50 (Panc 02.03, cell line Panc 02.03): 0.011 µM; EC50 (Panc 04.03, cell line Panc 04.03): 0.0226 µM; EC50 (Panc1005, cell line Panc 10.05): 0.00521 µM; EC50 (RCC10RGB): 0.0051 µM; EC50 (RCH-ACV): 0.0021 µM; EC50 (RD): 0.00769 µM; EC50 (REH): 0.00469 µM; EC50 (RKN): 0.0164 µM; EC50 (RMUG-S): 0.0675 µM; EC50 (RPMI 8402, RPMI-8402): 0.00589 µM; EC50 (RPMI-7951, cell line RPMI-7951): 0.0101 µM; EC50 (RPMI-8226, cell line RPMI 8226): 0.00333 µM; EC50 (RS4-11, cell line RS4;11): 0.0017 µM; EC50 (RT-112, RT-112): 0.0052 µM; EC50 (RVH-421, RVH-421): 0.00858 µM; EC50 (Raji, cell line Raji): 0.0107 µM; EC50 (Rec1, cell line REC-1): 0.00953 µM; EC50 (Rh18, cell line RH-18): 0.0313 µM; EC50 (Rh41, cell line RH-41): 0.00735 µM; EC50 (Ri-1, RI-1): 0.0049 µM; EC50 (SCaBER, cell line SCaBER): 0.0143 µM; EC50 (SEM): 0.00239 µM; EC50 (SET-2, cell line Set-2): 0.0104 µM; EC50 (SF-126, SF126): 0.0131 µM; EC50 (SF-295, cell line SF-295): 0.0118 µM; EC50 (SH-4, SH-4): 0.00459 µM; EC50 (SH-10-TC, cell line SH-10-TC): 0.0161 µM; EC50 (SHP77, SHP-77): 0.0121 µM; EC50 (SIG-M5, SIG-M5): 0.00514 µM; EC50 (SJRH30, cell line SJRH30): 0.0165 µM; EC50 (SJSA-1, cell line SJSA-1): 0.0266 µM; EC50 (SK-BR-3, cell line SK-BR-3): 0.00643 µM; EC50 (SK-CO-1, SK-CO-1): 0.0058 µM; EC50 (SK-ES1, cell line SK-ES-1): 0.00979 µM; EC50 (SK-LMS-1, SK-LMS-1): 0.00832 µM; EC50 (SK-LU-1, SK-LU-1): 0.00951 µM; EC50 (SK-MEL3, cell line SK-MEL-3): 0.00895 µM; EC50 (SK-MEL-1, SK-MEL-1): 0.0187 µM; EC50 (SK-MEL-2, cell line SK-MEL-2): 0.0104 µM; EC50 (SK-MEL-5, cell line SK-MEL-5): 0.00881 µM; EC50 (SK-MEL-24, SK-MEL-24): 0.0197 µM; EC50 (SK-MEL-30, cell line SK-MEL-30): 0.0107 µM; EC50 (SK-MES-1, cell line SK-MES-1): 0.0158 µM; EC50 (SK-N-AS, cell line SK-N-AS): 0.00725 µM; EC50 (SK-N-DZ): 0.00889 µM; EC50 (SK-N-FI, cell line SK-N-FI): 0.0115 µM; EC50 (SK-N-SH): 0.0072 µM; EC50 (SK-OV-3, cell line SK-OV-3): 0.0268 µM; EC50 (SK-UT-1, SK-UT-1): 0.00852 µM; EC50 (SKM-1, SKM-1): 0.0037 µM; EC50 (SKNBE2, SK-N-BE(2)): 0.00865 µM; EC50 (SNG-M): 0.00704 µM; EC50 (SNU1, SNU-1): 0.017 µM; EC50 (SNU878, SNU-878): 0.0229 µM; EC50 (SNU-16, cell line SNU-16): 0.00579 µM; EC50 (SNU-119): 0.0194 µM; EC50 (SNU-216, SNU-216): 0.015 µM; EC50 (SNU-449, SNU-449): 0.0299 µM; EC50 (SNU-475, SNU-475): 0.0247 µM; EC50 (SNU-626): 0.0151 µM; EC50 (SNU-738): 0.0327 µM; EC50 (SNU-1079): 0.00889 µM; EC50 (SNU-C1, SNU-C1): 0.00382 µM; EC50 (SNU-C5): 0.0167 µM
